Test results from PubChem BioAssay AID220 (DTP/NCI, 2004).
Values joined by “and” are separate entries in the source; they are usually repeats but may differ in a detail not shown here. Equal entries are not always repeated. Results filed as inconclusive are left out.

Tested on: CD8F1 mice, subcutaneous mammary adenocarcinoma, T/C%
Assay: NCI In Vivo Anticancer Drug Screen. Data for tumor model Mammary Adenocarcinoma CD8F1 (subcutaneous) in CD8F1
Conditions: higher = larger tumour
Procedure, shortened: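 Ratio of treated to vehicle-control outcome, based on either survival or tumor size, in mice bearing transplantable tumors given the test compound.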

[1] = endpoint: median tumor weight change, dose: 125.0 mg/kg/injection, schedule: Q01DX001 (ip), vehicle: saline with Tween-80
[2] = endpoint: median tumor weight change, dose: 250.0 mg/kg/injection, schedule: Q01DX001 (ip), vehicle: saline with Tween-80
[3] = endpoint: median tumor weight change, dose: 500.0 mg/kg/injection, schedule: Q01DX001 (ip), vehicle: saline with Tween-80
[4] = endpoint: median tumor weight (est.), dose: 25.0 mg/kg/injection, schedule: Q07DX005 (ip), vehicle: Klucel (hydroxypropylcellulose) (HPC)
[5] = endpoint: median tumor weight (est.), dose: 25.0 mg/kg/injection, schedule: Q07DX005 (ip), vehicle: saline with Tween-80
[6] = endpoint: median tumor weight (est.), dose: 50.0 mg/kg/injection, schedule: Q07DX005 (ip), vehicle: saline with Tween-80
[7] = endpoint: median tumor weight (est.), dose: 100.0 mg/kg/injection, schedule: Q07DX005 (ip), vehicle: saline with Tween-80

N=[N+]=CC(=O)CCC(NC(=O)C(CCC(=O)C=[N+]=N)NC(=O)CCC(N)C(=O)O)C(=O)O (stereo not drawn)
T/C (endpoint: median tumor weight (est.), dose: 3.12 mg/kg/injection, schedule: Q07DX004 (ip), vehicle: clinical formulation): 34 % of control
T/C (endpoint: median tumor weight (est.), dose: 6.25 mg/kg/injection, schedule: Q07DX004 (ip), vehicle: clinical formulation): 123 % of control
T/C (endpoint: median tumor weight (est.), dose: 12.5 mg/kg/injection, schedule: Q07DX004 (ip), vehicle: clinical formulation): 50 % of control
T/C (endpoint: median tumor weight (est.), dose: 25.0 mg/kg/injection, schedule: Q07DX004 (ip), vehicle: clinical formulation): 22 % of control
T/C (endpoint: median tumor weight (est.), dose: 50.0 mg/kg/injection, schedule: Q07DX004 (ip), vehicle: clinical formulation): 15 % of control
T/C (endpoint: median tumor weight (est.), dose: 100.0 mg/kg/injection, schedule: Q07DX004 (ip), vehicle: clinical formulation): 12 % of control

C[CH2][Sn]([CH2]C)([CH2]C(=O)OC)[CH2]C(=O)OC
T/C (endpoint: median tumor weight change, dose: 16.0 mg/kg/injection, schedule: Q01DX001 (ip), vehicle: saline with Tween-80): 78 % of control

CC1(C)OC1CS(=O)c1ccccc1 (stereo not drawn)
T/C [1]: 160 % of control
T/C [2]: 83 % of control and 92 % of control
T/C [3]: 72 % of control and 94 % of control

CNC(=O)OCc1c(COC(=O)NC)c(-c2ccc(F)cc2)n2c1CCC2
T/C (endpoint: median tumor weight (est.), dose: 3.12 mg/kg/injection, schedule: Q07DX005 (ip), vehicle: Klucel (hydroxypropylcellulose) (HPC)): 49 % of control
T/C (endpoint: median tumor weight (est.), dose: 6.25 mg/kg/injection, schedule: Q07DX005 (ip), vehicle: Klucel (hydroxypropylcellulose) (HPC)): 63 % of control
T/C (endpoint: median tumor weight (est.), dose: 12.5 mg/kg/injection, schedule: Q07DX005 (ip), vehicle: Klucel (hydroxypropylcellulose) (HPC)): 84 % of control
T/C [4]: 48 % of control
T/C (endpoint: median tumor weight (est.), dose: 50.0 mg/kg/injection, schedule: Q07DX005 (ip), vehicle: Klucel (hydroxypropylcellulose) (HPC)): 39 % of control

N#CC(=C1C=CC(=NO)C=C1)c1ccc(Cl)cc1
T/C (endpoint: mean tumor weight, dose: 100.0 mg/kg/injection, schedule: Q07DX006 (ip), vehicle: saline with Tween-80): 36 % of control and 52 % of control
T/C (endpoint: mean tumor weight, dose: 200.0 mg/kg/injection, schedule: Q07DX006 (ip), vehicle: saline with Tween-80): 19 % of control and 26 % of control
T/C (endpoint: mean tumor weight, dose: 400.0 mg/kg/injection, schedule: Q07DX006 (ip), vehicle: saline with Tween-80): 7 % of control and 10 % of control
T/C [5]: 98 % of control
T/C [6]: 63 % of control
T/C [7]: 58 % of control
T/C (endpoint: median tumor weight (est.), dose: 200.0 mg/kg/injection, schedule: Q07DX005 (ip), vehicle: saline with Tween-80): 57 % of control
T/C (endpoint: median tumor weight (est.), dose: 400.0 mg/kg/injection, schedule: Q07DX005 (ip), vehicle: saline with Tween-80): 36 % of control
T/C (endpoint: median tumor weight change, dose: 62.5 mg/kg/injection, schedule: Q01DX001 (ip), vehicle: saline with Tween-80): 92 % of control
T/C [1]: 88 % of control
T/C [2]: 70 % of control
T/C [3]: 28 % of control
T/C (endpoint: median tumor weight change, dose: 1000.0 mg/kg/injection, schedule: Q01DX001 (ip), vehicle: saline with Tween-80): 26 % of control

CN(C)N=Nc1ccccc1
T/C [4]: 87 % of control
T/C (endpoint: median tumor weight (est.), dose: 100.0 mg/kg/injection, schedule: Q07DX005 (ip), vehicle: Klucel (hydroxypropylcellulose) (HPC)): 78 % of control

COC(=Nc1ccccc1)SSC(C)C
T/C [7]: 43 % of control and 46 % of control

O=Cc1ccc([N+](=O)[O-])s1
T/C (endpoint: median tumor weight (est.), dose: 6.25 mg/kg/injection, schedule: Q07DX005 (ip), vehicle: saline with Tween-80): 225 % of control
T/C (endpoint: median tumor weight (est.), dose: 12.5 mg/kg/injection, schedule: Q07DX005 (ip), vehicle: saline with Tween-80): 71 % of control
T/C [5]: 295 % of control
T/C [6]: 156 % of control

Nc1ccc(S(=O)(=O)Nc2cnc3c(Cl)cccc3n2)cc1
T/C (endpoint: median tumor weight change, dose: 125.0 mg/kg/injection, schedule: Q01DX001 (ip), vehicle: DMSO): 96 % of control
T/C (endpoint: median tumor weight change, dose: 500.0 mg/kg/injection, schedule: Q01DX001 (ip), vehicle: DMSO): 102 % of control and 121 % of control
T/C (endpoint: median tumor weight change, dose: 2000.0 mg/kg/injection, schedule: Q01DX001 (ip), vehicle: DMSO): 102 % of control
